Data on 16 molecules can be found in ChEMBL document CHEMBL3132858, “6-Alkyl-, 6-aryl- or 6-hetaryl-7-deazapurine ribonucleosides as inhibitors of human or MTB adenosine kinase and potential antimycobacterial agents” (Medchemcomm, 2013).

For orientation: IC50 means the concentration at which inhibition is half-maximal. In general, CC50 refers to the concentration that lowers cell viability or growth by half.

Calls of active or inactive are those of the source. The rule behind the calls is not given here.

For series [1], the target named is Adenosine kinase (Mycobacterium tuberculosis (strain CDC 1551 / Oshkosh)) (UniProt P9WID4). Nature of the series: Activity of Mycobacterium tuberculosis ADK assessed as compound conversion to 5'-phosphate form incubated at 37 degC for 20 mins by HPLC method.
Adenosine kinase (Mycobacterium tuberculosis (strain CDC 1551 / Oshkosh)), sequence (P9WID4 2-324 limits assumed): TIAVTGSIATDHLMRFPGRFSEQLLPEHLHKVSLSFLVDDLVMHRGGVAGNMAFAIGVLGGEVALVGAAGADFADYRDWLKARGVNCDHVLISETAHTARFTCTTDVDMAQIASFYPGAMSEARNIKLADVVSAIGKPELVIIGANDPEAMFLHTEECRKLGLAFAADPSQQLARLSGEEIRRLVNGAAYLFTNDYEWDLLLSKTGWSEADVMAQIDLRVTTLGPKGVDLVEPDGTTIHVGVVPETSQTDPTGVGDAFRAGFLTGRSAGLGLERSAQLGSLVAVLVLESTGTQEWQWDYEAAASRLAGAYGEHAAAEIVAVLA
The target of series [2] is Adenosine kinase (Mycobacterium tuberculosis (strain CDC 1551 / Oshkosh), UniProt P9WID4). Put plainly: Inhibition of Mycobacterium tuberculosis ADK using [3H]-adenosine by scintillation counting method.
Adenosine kinase (Mycobacterium tuberculosis (strain CDC 1551 / Oshkosh), UniProt P9WID4), sequence (P9WID4 whole entry): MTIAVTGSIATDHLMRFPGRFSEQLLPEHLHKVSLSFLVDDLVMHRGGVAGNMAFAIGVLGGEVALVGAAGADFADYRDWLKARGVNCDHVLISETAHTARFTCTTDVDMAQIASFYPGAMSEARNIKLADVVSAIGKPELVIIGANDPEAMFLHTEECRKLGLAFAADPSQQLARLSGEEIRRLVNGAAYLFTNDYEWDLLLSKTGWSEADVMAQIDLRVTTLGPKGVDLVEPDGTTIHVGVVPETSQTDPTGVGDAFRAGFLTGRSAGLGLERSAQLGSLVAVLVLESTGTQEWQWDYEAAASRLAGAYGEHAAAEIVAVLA
Series [3] addresses T1, Adenosine kinase (Homo sapiens, UniProt P55263). Put plainly: Inhibition of human ADK using [3H]-adenosine by scintillation counting method.
Target sequence in this assay (P55263 whole entry): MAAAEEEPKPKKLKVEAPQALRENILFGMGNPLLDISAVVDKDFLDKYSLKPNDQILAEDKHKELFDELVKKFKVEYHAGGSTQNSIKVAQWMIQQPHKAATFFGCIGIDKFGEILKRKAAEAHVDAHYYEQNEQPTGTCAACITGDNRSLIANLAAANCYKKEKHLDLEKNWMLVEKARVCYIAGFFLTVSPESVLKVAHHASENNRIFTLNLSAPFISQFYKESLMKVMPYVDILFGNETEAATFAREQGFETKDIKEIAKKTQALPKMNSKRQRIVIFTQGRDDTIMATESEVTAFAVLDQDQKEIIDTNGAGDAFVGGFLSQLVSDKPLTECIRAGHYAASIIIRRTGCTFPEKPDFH
The target of series [4] is T1, Adenosine kinase. Nature of the series: Activity of human ADK assessed as compound conversion to 5'-phosphate form incubated at 37 degC for 20 mins by HPLC method. Further details: concentration or dose not given beside the values.
Target sequence in this assay (P55263 2-362 limits assumed): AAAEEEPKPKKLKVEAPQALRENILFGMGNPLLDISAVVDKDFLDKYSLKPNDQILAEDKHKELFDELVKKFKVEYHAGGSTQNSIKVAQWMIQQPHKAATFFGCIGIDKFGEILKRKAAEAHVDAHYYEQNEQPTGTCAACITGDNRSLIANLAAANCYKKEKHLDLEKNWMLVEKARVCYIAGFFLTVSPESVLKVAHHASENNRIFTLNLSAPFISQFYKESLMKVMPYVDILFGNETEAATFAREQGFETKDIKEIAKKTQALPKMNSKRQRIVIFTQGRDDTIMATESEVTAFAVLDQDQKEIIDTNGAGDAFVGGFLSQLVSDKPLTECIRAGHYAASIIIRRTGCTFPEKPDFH
A short description of series [5]: Cytotoxicity against human BJ cells after 72 hrs by MTT assay. The format is cell-based. On the technique in general: Tetrazolium dyes change colour on reduction, which living cells bring about.
Series [6] can be described thus: Cytotoxicity against human MRC5 cells after 72 hrs by MTT assay. Format: cell-based.

On to `OC[C@H]1O[C@@H](n2cc(F)c3c(-c4cc[nH]c4)ncnc32)[C@H](O)[C@@H]1O`, for which the outcome in series [1] was inactive. In addition, the IC50 in series [2] was 400 nM; in series [3], > 10000 nM. Also, in series [4], the Activity is 97%. Moreover, the CC50 at 72 h in series [5] is 2020 nM; in series [6], 48900 nM.
In the case of `OC[C@H]1O[C@@H](n2cc(Cl)c3c(-c4ccsc4)ncnc32)[C@H](O)[C@@H]1O`, in series [1], the outcome was inactive. The IC50 is 250 nM in series [2] and > 10000 nM in series [3]. In series [4], the Activity was determined as 97%. In addition, the results for the CC50 at 72 h in series [5] and in series [6] were 1720 nM and > 50000 nM, respectively.
In the case of `OC[C@H]1O[C@@H](n2cc(Cl)c3c(-c4ccccc4)ncnc32)[C@H](O)[C@@H]1O`, in series [1], the outcome was inactive. Besides, the IC50 in series [2] is 220 nM; in series [3], > 10000 nM. In addition, the Activity in series [4] worked out at 29%. In addition, the CC50 at 72 h in series [5] is 44500 nM; in series [6], > 50000 nM.
Regarding `OC[C@H]1O[C@@H](n2cc(F)c3c(-c4cccs4)ncnc32)[C@H](O)[C@@H]1O`, the outcome in series [1] was inactive. Further, the values for the IC50 in series [2] and in series [3] were 35 nM and 1100 nM, respectively. The Activity in series [4] was determined as 52%. In addition, the 50% cytotoxic concentration (CC50) at 72 h was 170 nM in series [5] and 47200 nM in series [6].
For `OCc1ncnc2c1ccn2[C@@H]1O[C@H](CO)[C@@H](O)[C@H]1O`, in series [1], the outcome was inactive. The values for the concentration for half-maximal inhibition (IC50) in series [2] and in series [3] were > 5000 nM and > 10000 nM, respectively. Also, the Activity in series [4] was found to be 26%. In addition, the CC50 at 72 h in series [5] stood at 340 nM; in series [6], 280 nM.
`OC[C@H]1O[C@@H](n2cc(F)c3c(-c4ccc[nH]4)ncnc32)[C@H](O)[C@@H]1O`: in series [1], the outcome was inactive. The IC50 is 70 nM in series [2] and > 10000 nM in series [3]. In addition, the Activity in series [4] was 76%. Further, the results for the CC50 at 72 h in series [5] and in series [6] were 2990 nM and 44400 nM, respectively.
Take `OC[C@H]1O[C@@H](n2cc(F)c3c(-c4ccsc4)ncnc32)[C@H](O)[C@@H]1O`: in series [1], the outcome was inactive. The results for the IC50 in series [2] and in series [3] were 63 nM and > 10000 nM, respectively. Besides, in series [4], the Activity was found to be 51%. For the same molecule, the CC50 at 72 h in series [5] stood at 620 nM; in series [6], 50000 nM.
For `OC[C@H]1O[C@@H](n2ccc3c(-c4c[nH]cn4)ncnc32)[C@H](O)[C@@H]1O`, the result in series [1] was inactive. Besides, the IC50 in series [2] was 780 nM; in series [3] it was > 10000 nM. The Activity in series [4] was found to be 28%. The CC50 at 72 h in series [5] was 210 nM; in series [6], > 50000 nM.
With `OC[C@H]1O[C@@H](n2ccc3c(-c4ccc[nH]4)ncnc32)[C@H](O)[C@@H]1O`, the outcome in series [1] was inactive. In addition, the IC50 in series [2] was 73 nM; in series [3] it was > 10000 nM. For the same molecule, the Activity in series [4] came to 40%. For the same molecule, the CC50 at 72 h in series [5] and in series [6] was > 50000 nM in each case.
Turning to `OC[C@H]1O[C@@H](n2ccc3c(-c4ccsc4)ncnc32)[C@H](O)[C@@H]1O`, the outcome in series [1] was inactive. Besides, the IC50 in series [2] is 195 nM; in series [3], > 10000 nM. For the same molecule, the Activity in series [4] was found to be 56%. Also, the CC50 at 72 h in series [5] is 21300 nM; in series [6], > 50000 nM.
`Cc1ncnc2c1ccn2[C@@H]1O[C@H](CO)[C@@H](O)[C@H]1O`: in series [1], the outcome was inactive. The results for the IC50 in series [2] and in series [3] were 8800 nM and > 10000 nM, respectively. The Activity in series [4] came to 54%. Further, the figures for the CC50 at 72 h in series [5] and in series [6] were 98 nM and 81 nM, respectively.
As to `OC[C@H]1O[C@@H](n2cc(F)c3c(-c4ccco4)ncnc32)[C@H](O)[C@@H]1O`, the result in series [1] was inactive. The figures for the IC50 in series [2] and in series [3] were 190 nM and 1300 nM, respectively. The Activity in series [4] stood at 50%. Further, the figures for the CC50 at 72 h in series [5] and in series [6] were 310 nM and 29000 nM, respectively.
As for `OC[C@H]1O[C@@H](n2ccc3c(-c4ccoc4)ncnc32)[C@H](O)[C@@H]1O`, the result in series [1] was inactive. Also, the 50% inhibitory concentration (IC50) in series [2] is 320 nM; in series [3], > 10000 nM. The Activity in series [4] is 32%. In addition, the CC50 at 72 h in series [5] is 1200 nM; in series [6], 45400 nM.
Regarding `OC[C@H]1O[C@@H](n2cc(Cl)c3c(-c4ccco4)ncnc32)[C@H](O)[C@@H]1O`, the outcome in series [1] was inactive. Besides, the figures for the half-inhibitory concentration (IC50) in series [2] and in series [3] were 110 nM and 290 nM, respectively. Also, the Activity in series [4] stood at 77%. The figures for the CC50 at 72 h in series [5] and in series [6] were 37200 nM and > 50000 nM, respectively.
In the case of `OC[C@H]1O[C@@H](n2ccc3c(-c4ccc[se]4)ncnc32)[C@H](O)[C@@H]1O`, in series [1], the result was inactive. For the same molecule, the IC50 is 30 nM in series [2] and > 10000 nM in series [3]. In addition, the Activity in series [4] is 43%. The figures for the half-maximal cytotoxic concentration (CC50) at 72 h in series [5] and in series [6] were 1520 nM and > 50000 nM, respectively.
With `OC[C@H]1O[C@@H](n2cc(F)c3c(-c4c[nH]cn4)ncnc32)[C@H](O)[C@@H]1O`, the outcome in series [1] was inactive. The IC50 in series [2] was 1000 nM; in series [3], > 20000 nM. Further, the Activity in series [4] was found to be 11%. Besides, the CC50 at 72 h in series [5] and in series [6] was > 50000 nM throughout.
